Experimental findings from US20200155609A1, “COMPOSITIONS AND METHODS OF MAKING EXPANDED HEMATOPOIETIC STEM CELLS USING PTEN INHIBITORS” (Transfusion Health LLC, priority 2017, published 2020) are described below.

For test [1], the system named is Primary human CD34+ cells isolated from mobilized peripheral blood. As to the kind of experiment: Relative expansive effect (relative cell number), mobilized peripheral blood CD34+ cells in StemSpan SFEM (Example 23). Format: cell-based. As for the experimental part:
Mobilized peripheral blood was purchased from StemCell Technologies. The blood was mobilized using G-CSF from volunteer donors. Volunteers were administered a maximum of 10 ug/kg/day of granulocyte colony-stimulating factor (G-CSF) for 3-5 days prior to collection. Primary human CD34+ cells were isolated from mobilized peripheral blood leukapheresis samples using positive immunomagnetic separation techniques.
Isolated CD34+ cells were incubated in an in vitro culture media of StemSpan SFEM. When testing the substituted derivatives of 9,10-dihydrophenathrene (+Derivative conditions), two internal controls were used: a positive control (+SF conditions) and a baseline control (i.e, basic conditions (“cytokines only”)). The media components and concentrations used for the compounds tested are described in Table 8, above. The culture also included an antibiotic solution that includes penicillin, streptomycin, and amphotericin B to avoid contamination. Controls were included because the amount of expansion in samples obtained varies from individual to individual.
Cultures were incubated at 3% oxygen (controlled by nitrogen) and 5% CO2. […]
Table 10, below, summarizes the relative expansive effect of Compound 1.013 at the indicated concentration. […] Relative cell number is calculated as described in Example 22.

The test system of test [2] is CD34+ cells isolated from donor non-mobilized peripheral blood. As to the kind of experiment: Titration of SF1670 on CD34+ cells from non-mobilized peripheral blood, flow cytometry (Example 20). Format: cell-based, human. An excerpt: CD34+ cells were isolated from donor peripheral blood. Standard ficoll paque layering was used to separate the buffy coat. Cells then undergo negative depletion using biotinylated CD2, CD3, CD4, CD5, CD8, CD1 Ib, CD14, CD16, CD19, CD20, CD45RA, CD56, CD235 (in some examples CD15, CD25 and other lineage specific antibodies may also be used). Cells which bind these antibodies are depleted using streptavidin beads. The depleted cell pool was sorted for CD34+ cells before being placed in cell culture.
Isolated CD34+ cells were incubated in an in vitro culture media of Alpha MEM without phenol red, 10% (v/v) heat inactivated fetal bovine serum (FBS) and +SF conditions. +SF conditions included the components described in Table 5. The culture also included an antibiotic solution that includes penicillin, streptomycin, and amphotericin B to avoid contamination.
(§1) Cultures were incubated at 3% oxygen (controlled by nitrogen) and 5% CO2.
(§2) Small molecule components were added separately and fresh each time the media needs to be refreshed. Cytokines can be stored together. Media renewal should occur at least every few days.
(§3) On the days indicated one-half of the volume of the cell culture was removed for data analysis (flow cytometry using a BD FACS ARIA II). The culture volume was replenished with fresh media according to the conditions tested. The data reported accounts for the dilution factor introduced in this procedure.
(In general: Flow cytometry measures light scatter and fluorescence of single cells or particles in a stream.)

The test system of test [3] is hematopoietic stem cells derived from cord blood. As to the kind of experiment: Culture of cord blood with SF1670, flow cytometry (Example 19). Format: cell-based, human. As to the method: A frozen cord blood sample was thawed and gradually brought to room temperature. Thawed cord blood was incubated in an in vitro culture media of Alpha MEM without phenol red, 10% (v/v) heat inactivated fetal bovine serum (FBS). Base Conditions and +SF Conditions further included the components described in Table 4. Each condition tested also included an antibiotic solution that includes penicillin, streptomycin, and amphotericin B to avoid contamination.
as §1, §2, §3

Test [4] concerns CD34+ cells isolated from donor non-mobilized peripheral blood (hematopoietic stem cells). The test can be described thus: Culture of CD34+ cells from non-mobilized peripheral blood with SF1670 or SF1670 and ER50891, flow cytometry (Example 17). In kind it is cell-based, human. The following applies: after 7 days in culture, SF1670 250 nM (ER50891 100 nM), compared with Base conditions. As to the method: CD34+ cells were isolated from donor peripheral blood. Whole blood was centrifuged at 1750×g (the speed of centriguation may vary) for 20 minutes. Plasma was drawn off using a pipette or syringe. Concentrated red blood cell (RBC) layer was drawn off with a pipette or syringe. Residual RBCs were lysed using standard RBC lysis protocols. White blood cell (WBC) layer was washed in PBS and spun down several times at 300 g for 7 minutes to remove platelets and some debris. Cells were pelleted and incubated with unlabeled CD64 antibody. Cells then undergo negative depletion using biotinylated CD2, CD3, CD4, CD5, CD8, CD11b, CD14, CD16, CD19, CD20, CD45RA, CD56, CD235 (in some examples CD15, CD25 and other lineage specific antibodies may also be used). Cells which bind these antibodies are depleted using streptavidin beads. The resultant progenitor enriched cell pool were cultured directly (residual mature cells and late progenitors will be killed off over time in culture) or cell pool can undergo a CD34 or CD133 positive selection to further enrich for the desired cells before culturing.
Isolated CD34+ cells were incubated in an in vitro culture media of Alpha MEM without phenol red, 10% (v/v) heat inactivated fetal bovine serum (FBS). Base Conditions, +SF Conditions, and +SF/+ER conditions further included the components described in Table 2. Each condition tested also included an antibiotic solution that includes penicillin, streptomycin, and amphotericin B to avoid contamination.
as §1, §2, §3

For `O=C1C(=O)c2ccc(O)cc2-c2ccccc21` [Compound 1.013, 3-hydroxyphenanthrene-9,10-dione], the “CD133 effect (relative expansive effect, relative cell number)” value in test [1] (7 days in culture, 1 μM sample compound, mobilized peripheral blood, StemSpan SFEM) is on record as “+++ (0.55 ≤ x < 0.9)”. Also, in test [1] (number of cells per well after 7 days, FIG. 18), the “expansive effect on HSCs in culture” value is reported as “positive expansive effect”.
`CC(C)(C)C(=O)Nc1ccc2c(c1)C(=O)C(=O)c1ccccc1-2` [SF1670]: the “expansive effect on the enhancement of hematopoietic stem cells over the control condition (0 nM SF1670)” value in test [2] (SF1670 125 nM, 250 nM and 500 nM, FIG. 5B-5E) is “at least some expansive effect”. Moreover, the “expansion of any cell type (total cells)” value in test [2] (SF1670 1000 nM, FIG. 5A) is given as “very little expansion”. In test [2] (SF1670 1000 nM, days 4 and 7, FIG. 5A-5E), the expansive effect entry was “reduced expansive effect”. For the same molecule, the “total number of CD34+ cells” value in test [3] (+SF conditions (SF1670 500 nM) vs Base conditions, FIG. 3B) was “increase”. For the same molecule, the “total number of CD133+ cells” value in test [3] (+SF conditions (SF1670 500 nM) vs Base conditions, FIG. 3C) is “increase”. For the same molecule, in test [3] (+SF conditions (SF1670 500 nM) vs Base conditions, FIG. 3D), the “total number of CD90+ cells” value is reported as “increase”. In test [3] (+SF conditions (SF1670 500 nM) vs Base conditions, FIG. 3E), the “total number of CD38− cells” value was “increase”. In addition, the “fold increase in CD34+ cells from day 2” value in test [3] (SF1670 500 nM, after 16 days in culture, FIG. 4B) is “greater than 50 fold”. For the same molecule, in test [3] (SF1670 500 nM, after 16 days in culture, FIG. 4C), the “fold increase in CD133+ cells from day 2” value is reported as “greater than 50 fold”. The “fold increase in CD90+ cells from day 2” value in test [3] (SF1670 500 nM, after 16 days in culture, FIG. 4D) is given as around 30 fold. For the same molecule, the “fold increase in CD38− cells from day 2” value in test [3] (SF1670 500 nM, after 16 days in culture, FIG. 4E) is reported as around 5 fold. The “number of CD34+ cells” value in test [4] (FIG. 1A) is “increased numbers”. Further, the “number of CD133+ cells” value in test [4] (FIG. 1B) is given as “increased numbers”. In addition, in test [4] (FIG. 1C), the “number of CD90+ cells” value is “increased numbers”.
